Data on one compound can be found in ChEMBL document CHEMBL4732174, “Discovery of 6-(7-Nitro-2,1,3-benzoxadiazol-4-ylthio)hexanol Derivatives as Glutathione Transferase Inhibitors with Favorable Selectivity and Tolerated Toxicity” (J Med Chem, 2021).

Series [1] in a line: Toxicity in BALB/c nude mouse xenografted with human 143B cells assessed as necrosis in heart at 5 to 20 mg/kg, po administered once daily for 28 consecutive days by hematoxylin-eosin staining based assay. The format is organism-based. The following applies: in vivo, 672 h, dose 5-20 mg/kg, time 28 day. In general terms: Xenograft models place foreign cells or tissue in a host animal.

In series [2] the test system is 143B. The experiment in a line: Induction of cell cycle arrest in human 143B cells assessed as accumulation at S phase at 10 uM incubated for 48 hrs by propidium iodide staining based flow cytometry (reference value: 32.03 %). In kind it is functional. On the technique in general: Flow cytometry measures light scatter and fluorescence of single cells or particles in a stream.

For series [3] the following is noted: rat, in vivo, po, 80 mg/kg, 48 h.
Description: AUC (0 to infinity) in Sprague-Dawley rat at 80 mg/kg, po administered as single dose measured upto 48 hrs by LC-MS/MS analysis
Series [4] relates to 143B. Briefly: Induction of cell cycle arrest in human 143B cells assessed as accumulation at G1 phase at 5 uM incubated for 48 hrs by propidium iodide staining based flow cytometry (reference value: 66.62 %). In kind it is functional.
For series [5] the following is noted: rat, in vivo, po, 80 mg/kg, 48 h. This is another data set of the same source.
Description: Plasma clearance in Sprague-Dawley rat at 80 mg/kg, po administered as single dose measured upto 48 hrs by LC-MS/MS analysis
The nature of series [6]: Volume of distribution in Sprague-Dawley rat at 80 mg/kg, po administered as single dose measured upto 48 hrs by LC-MS/MS analysis. To be noted: in vivo.
The subject of series [7] is 143B. The experiment in a line: Induction of cell cycle arrest in human 143B cells assessed as accumulation at S phase at 2.5 uM incubated for 48 hrs by propidium iodide staining based flow cytometry (reference value: 32.03 %). In kind it is functional.
The target of series [8] is T1, liver carboxylesterase (Sus scrofa, UniProt Q29550).
T1 sequence (Q29550 whole entry): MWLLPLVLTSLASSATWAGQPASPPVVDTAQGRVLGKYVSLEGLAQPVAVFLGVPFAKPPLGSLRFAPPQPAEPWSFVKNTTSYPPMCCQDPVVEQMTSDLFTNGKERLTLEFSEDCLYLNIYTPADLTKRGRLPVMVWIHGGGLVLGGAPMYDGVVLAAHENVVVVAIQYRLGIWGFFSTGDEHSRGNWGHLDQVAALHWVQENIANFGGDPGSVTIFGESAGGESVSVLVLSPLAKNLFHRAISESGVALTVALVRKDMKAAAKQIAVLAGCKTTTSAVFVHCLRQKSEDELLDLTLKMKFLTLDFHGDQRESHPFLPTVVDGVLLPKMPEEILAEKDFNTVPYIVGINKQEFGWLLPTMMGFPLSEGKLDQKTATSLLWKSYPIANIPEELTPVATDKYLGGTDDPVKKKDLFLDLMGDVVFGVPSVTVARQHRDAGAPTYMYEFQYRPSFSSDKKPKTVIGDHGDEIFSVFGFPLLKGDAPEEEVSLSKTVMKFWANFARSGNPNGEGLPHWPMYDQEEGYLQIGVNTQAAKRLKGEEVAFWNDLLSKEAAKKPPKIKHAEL
Briefly: Stability of the compound assessed as pig liver carboxylesterase-mediated compound hydrolysis at 10 mM measured after 12 hrs by HPLC analysis. In kind it is ADME. To be noted: read-out: Drug degradation.

Series [9] relates to 143B. Briefly: Induction of cell cycle arrest in human 143B cells assessed as accumulation at S phase at 5 uM incubated for 48 hrs by propidium iodide staining based flow cytometry (reference value: 32.03 %). In kind it is functional.
Series [10] deals with 143B. The experiment in a line: Induction of cell cycle arrest in human 143B cells assessed as accumulation at G2 phase at 5 uM incubated for 48 hrs by propidium iodide staining based flow cytometry (reference value: 1.35 %). In kind it is functional.
A short description of series [11]: Toxicity in BALB/c nude mouse xenografted with human 143B cells assessed as cellular inflammation in heart at 5 to 20 mg/kg, po administered once daily for 28 consecutive days by hematoxylin-eosin staining based assay. To be noted: in vivo, 672 h, dose 5-20 mg/kg, time 28 day. The format is organism-based.
Series [12] can be described thus: Toxicity in BALB/c nude mouse xenografted with human 143B cells assessed as cellular inflammation in kidney at 5 to 20 mg/kg, po administered once daily for 28 consecutive days by hematoxylin-eosin staining based assay. The format is organism-based. To be noted: in vivo, 672 h, dose 5-20 mg/kg, time 28 day.
The target in series [13] is T1, liver carboxylesterase. Briefly: Stability of the compound assessed as pig liver carboxylesterase-mediated compound hydrolysis at 10 mM measured after 24 hrs by HPLC analysis. The format is ADME. The following applies: read-out: Drug degradation.
A further series in a line: in vivo. To be noted: Sprague-Dawley, rat, po, 80 mg/kg.
The next series relates to HUVEC. The experiment in a line: Cytotoxicity against HUVEC assessed as reduction in cell viability incubated for 72 hrs by MTT assay. In kind it is cell-based. The following applies: Homo sapiens.
Series [14] is described as follows: Toxicity in BALB/c nude mouse xenografted with human 143B cells assessed as cellular inflammation in lung at 5 to 20 mg/kg, po administered once daily for 28 consecutive days by hematoxylin-eosin staining based assay. The format is organism-based. The following applies: in vivo, 672 h, dose 5-20 mg/kg, time 28 day.
The subject of series [15] is 143B. The experiment in a line: Induction of cell cycle arrest in human 143B cells assessed as accumulation at G2 phase at 2.5 uM incubated for 48 hrs by propidium iodide staining based flow cytometry (reference value: 1.35 %). In kind it is functional.
Another series relates to L02. The experiment in a line: Cytotoxicity against human L02 cells assessed as reduction in cell viability incubated for 72 hrs by MTT assay. The format is cell-based. To be noted: L02, 72 h.
Series [16] deals with 143B. Briefly: Induction of cell cycle arrest in human 143B cells assessed as accumulation at G1 phase at 2.5 uM incubated for 48 hrs by propidium iodide staining based flow cytometry (reference value: 66.62 %). The format is functional.

Description for in vivo: AUC (0 to t) in Sprague-Dawley rat at 80 mg/kg, po administered as single dose measured upto 48 hrs by LC-MS/MS analysis

`CN(C)CCCNC(=O)CCC(=O)OCCCCCCSc1ccc([N+](=O)[O-])c2nonc12`: the Activity entry in series [1] is given as “Non-Toxic”; in the series on 143B [2], 30.32%; with 143B [4], 49.82%; with 143B [7], 40.75%; with 143B [9], 34.94%; in the series with 143B [10], 15.24%. The Activity entry in [11] is recorded as “Non-Toxic”; in series [12] it was “Non-Toxic”; in [14] it was “Non-Toxic”; in the series with 143B [15], 9.46%; in the series on 143B [16] it was 49.79%. Further, the AUC in [3] amounted to 6514.48 ng·h/mL. The CL in series [5] is 64.2 mL/min/kg. In series [6], this compound showed a Vd of 7.62 L/kg. The metabolised at 12 h, 10000 µM on liver carboxylesterase [8] is 33%. The metabolised at 24 h, 10000 µM at liver carboxylesterase [13] is 45%. In the series “in vivo”, the AUC(0-t) at 48 h came out at 6420 ng·h/mL. In addition, the half-inhibitory concentration (IC50) with HUVEC worked out at 1600 nM; with L02 it was 4230 nM.

Broadly, the AUC is the area under the concentration-time curve, a measure of exposure. Lower therefore signals less exposure. In general, AUC(0-t) refers to exposure summed from dosing to a finite time, without extrapolation to infinity. A higher AUC(0-t) goes with more exposure. As a reminder, the IC50 is the concentration that gives 50% inhibition.
